Results: article PMC11396746, “Stability Evaluation and Pharmacokinetic Profiling of Vepdegestrant in Rodents Using Liquid Chromatography–Tandem Mass Spectrometry” (Molecules, 2024)

Columns and labels:
[1] = Plasma protein binding (PPB) using a rapid equilibrium dialysis device; type: in vitro ADME
Experimental: Low plasma stability was predicted based on pH stability results. […] In addition, we evaluated the plasma protein binding (PPB) of vepdegestrant using a rapid equilibrium dialysis device. However, the concentration of vepdegestrant in the buffer was below the quantification limit, making it impossible to determine an accurate binding ratio. This phenomenon persisted even when the administered concentration was increased from 2 to 10 µg/mL or when the plasma was diluted up to 100-fold. […] Furthermore, the recovery of vepdegestrant in the plasma after a 4-h incubation was greater than 85%. The unrecovered fraction may result from nonspecific binding to the device and membrane. Further studies should be conducted using alternative methods.

[2] = Metabolic stability in mouse liver microsomes; type: in vitro ADME; details: 60 min, 1 μM, with NADPH
Experimental: (§1) The metabolic stability of vepdegestrant was evaluated using liver microsomes obtained from mice, rats, dogs, and humans. Vepdegestrant was dissolved in DMSO to prepare a stock solution with a concentration of 0.1 mM. Microsomes (25 µL) were spiked into PBS (440 µL) and pre-incubated for 5 min. After pre-incubation, vepdegestrant stock solution (5 µL) was added, followed by an NADPH regenerating system (27 µL) to initiate the reaction. The composition of the reaction mixture was as follows: Vepdegestrant (final concentration 1 µM), mouse, rat, dog, human liver microsomes (protein concentration: 1 mg/mL), NADPH regenerating system (final concentrations: 1.3 mM NADP^+, 3.3 mM glucose-6-phosphate, 0.4 U/mL glucose-6-phosphate dehydrogenase, and 3.3 mM magnesium chloride), and PBS (pH 7.4). At 5, 15, 30, and 60 min after starting the reaction, aliquots (50 µL) were taken and added to ice-cold ACN with an IS (200 µL) to terminate the reaction. For the zero-time samples, aliquots were taken before adding NADPH. Subsequently, the mixture was vigorously mixed for 10 min and centrifuged at 17,054 g under 25 °C for 10 min. For analysis, 5 µL of the supernatant was injected into the HPLC-MS/MS system. In addition, the stability of vepdegestrant in rat liver microsomes was assessed in the absence of NADPH or NADPH and microsomes (PBS only). […]

[3] = Metabolic stability in rat liver microsomes; type: in vitro ADME
Experimental: The metabolic stability of vepdegestrant was evaluated using liver microsomes obtained from mice, rats, dogs, and humans. Vepdegestrant was dissolved in DMSO to prepare a stock solution with a concentration of 0.1 mM. Microsomes (25 µL) were spiked into PBS (440 µL) and pre-incubated for 5 min. After pre-incubation, vepdegestrant stock solution (5 µL) was added, followed by an NADPH regenerating system (27 µL) to initiate the reaction. The composition of the reaction mixture was as follows: Vepdegestrant (final concentration 1 µM), mouse, rat, dog, human liver microsomes (protein concentration: 1 mg/mL), NADPH regenerating system (final concentrations: 1.3 mM NADP^+, 3.3 mM glucose-6-phosphate, 0.4 U/mL glucose-6-phosphate dehydrogenase, and 3.3 mM magnesium chloride), and PBS (pH 7.4). At 5, 15, 30, and 60 min after starting the reaction, aliquots (50 µL) were taken and added to ice-cold ACN with an IS (200 µL) to terminate the reaction. For the zero-time samples, aliquots were taken before adding NADPH. Subsequently, the mixture was vigorously mixed for 10 min and centrifuged at 17,054 g under 25 °C for 10 min. For analysis, 5 µL of the supernatant was injected into the HPLC-MS/MS system. In addition, the stability of vepdegestrant in rat liver microsomes was assessed in the absence of NADPH or NADPH and microsomes (PBS only). The experimental procedure was the same as described for the microsomal stability test, except that an equivalent volume of PBS was added instead of NADPH or microsomes.

[4] = Metabolic stability in dog liver microsomes; type: in vitro ADME
Experimental: as §1

[5] = Metabolic stability in human liver microsomes; type: in vitro ADME
Experimental: as §1

[6] = Pharmacokinetic study in male ICR mice; type: in vivo; details: mouse
Experimental: (§2) Twelve healthy male ICR mice (6 weeks old, 27.5–30.5 g) and 10 healthy male Sprague–Dawley (SD) rats (7 weeks old, 195.5–212.0 g) were acquired from Orient Bio Inc. (Seongnam, Republic of Korea) and used for PK studies. The animals were kept in rooms in a temperature range of 20–25 °C, humidity of 40–60%, and a 12-h light/dark cycle. Before the experiment, mice were fasted for 4 h, whereas rats were fasted for 14 h, with only water provided during the fasting period. After 4 h of drug administration, animals were provided with free access to food and water. All animal experiments were approved by the Institutional Animal Care and Use Committee of the Chungnam National University (202310A-CNU-178; Daejeon, Republic of Korea).
For the PK studies in mice, a vepdegestrant dosing solution was prepared using a combination of DMSO, PEG400, and saline (5:25:70, v/v/v). The dosing solution was administered intravenously (IV, 2 mg/kg) through the tail vein or orally (PO, 5 mg/kg) through a gavage needle. The dose volume for both routes was 10 mL/kg. Blood samples (50 μL) were collected via the retro-orbital plexus at 0.05 (IV only), 0.25, 0.5, 1, 2, 4, 8, and 24 h post vepdegestrant administration using heparin-coated microcapillaries. Blood samples were immediately centrifuged at 12,032 g under 25 °C for 5 min, and plasma aliquots (20 μL) were stored at −20 °C until HPLC-MS/MS analysis.
(§3) The collected plasma samples from mice or rats (20 µL) were added with IS (20 µL) and ACN (160 µL). Subsequently, the mixture was vigorously mixed for 10 min and centrifuged at 17,054× g under 25 °C for 10 min. An aliquot of the supernatant (100 μL) was taken, and a volume of 5 μL was injected for HPLC-MS/MS analysis. PK parameters were calculated using Phoenix® 8.3 software (Certara L.P., Princeton, NJ, USA), as described previously.

[7] = Pharmacokinetic study in male SD rats; type: in vivo; details: rat
Experimental: as §2
For the PK studies in rats, a vepdegestrant dosing solution was prepared using a combination of DMSO, PEG 400, cremophor EL, and saline (5:40:2.5:52.5, v/v/v/v). The dosages were set at 2 and 5 mg/kg for IV and PO, respectively, consistent with mouse PK studies. The dose volumes were 2 and 5 mL/kg IV and PO, respectively. Blood samples (100 µL) were collected from the jugular vein using heparinized syringes at 0.08 (IV only), 0.25, 0.5, 1, 2, 4, 8, and 24 h post vepdegestrant administration. Blood samples were immediately centrifuged at 12,032 g under 25 °C for 5 min, and plasma aliquots (20 μL) were stored at −20 °C until HPLC-MS/MS analysis.
as §3

[8] = male, Sprague-Dawley, plasma, IV 2 mg/kg
[9] = male, Sprague-Dawley, plasma, PO 5 mg/kg

With `O=C1CC[C@H](N2Cc3cc(N4CCN(CC5CCN(c6ccc([C@@H]7c8ccc(O)cc8CC[C@@H]7c7ccccc7)cc6)CC5)CC4)ccc3C2=O)C(=O)N1` [vepdegestrant, Vepdegestrant] the recovery at 4 h ([1]; plasma in a rapid equilibrium dialysis device, after 4-h incubation in rapid equilibrium dialysis device, read-out: recovery of vepdegestrant in the plasma) was greater than 85%, the fraction unbound at 4 h ([1]; plasma, calculated assuming buffer concentration at the lowest quantifiable limit, actual PPB likely higher) was 0.001 and the “remaining percentage of unconverted vepdegestrant” value (from here on “remaining percentage”) [2] was 106%. For the same molecule, the half-life at 1 µM ([3]; Sprague-Dawley, liver microsomes, pH 7.4, rat microsomes, 1 μM) was 0.615 h, the vepdegestrant remaining ([3]; rat microsomes in the absence of NADPH, 1 h incubation) was 86.6% and the “remaining percentage” value ([3]; rat microsomes, 60 min, 1 μM, with NADPH) was 32.2%. The “remaining percentage” value ([4]; 60 min, 1 μM, with NADPH) was 97.1%, the half-life at 1 µM ([4]; beagle, liver microsomes, pH 7.4) was 9.85 h and the “remaining percentage” value ([5]; 60 min, 1 μM, with NADPH) was 98.3%. For the same molecule, the half-life at 1 µM ([5]; liver microsomes, pH 7.4) was 13.4 h, the Vd ([6]; male, ICR, plasma, intravenous, 2 mg/kg, read-out: volume of distribution) was greater than 1 L/kg and the Cmax ([6]; male, ICR, plasma, IV 2 mg/kg) was 2180 ± 442 ng/mL. It also gave an MRT ([6]; male, ICR, plasma, IV 2 mg/kg) of 4.61 ± 1.43 h, a Tmax ([6]; male, ICR, plasma, IV 2 mg/kg) of 0.05 h and a clearance ([6]; male, ICR, plasma, IV 2 mg/kg) of 5.22 mL/min/kg. The half-life ([6]; male, ICR, plasma, IV 2 mg/kg) was 3.79 ± 1.15 h, the Vd ([6]; male, ICR, plasma, IV 2 mg/kg, read-out: Vss) was 1.43 ± 0.472 L/kg and the Cmax ([6]; male, ICR, plasma, PO 5 mg/kg) was 393 ± 133 ng/mL. The MRT ([6]; male, ICR, plasma, PO 5 mg/kg) was 5.58 ± 1.34 h, the Tmax ([6]; male, ICR, plasma, PO 5 mg/kg) was 1 h and the half-life ([6]; male, ICR, plasma, PO 5 mg/kg) was 3.64 ± 1.4 h. For the same molecule, the bioavailability ([6]; male, ICR, plasma, PO 5 mg/kg vs IV 2 mg/kg, read-out: BA (oral bioavailability)) was 17.9 ± 4.35%, the AUCinf ([6]; IV 2 mg/kg) was 6510 ± 1060 ng·h/mL and the AUClast ([6]; IV 2 mg/kg) was 6400 ± 1080 ng·h/mL. For the same molecule, the AUCinf ([6]; PO 5 mg/kg) was 2910 ± 707 ng·h/mL, the AUClast ([6]; PO 5 mg/kg) was 2870 ± 704 ng·h/mL and the “clearance as % of liver blood flow” value ([6]; liver blood flow 5.4 L/h/kg) was 5.8%. The Cmax [7, 8] was 850 ± 95 ng/mL, the MRT [7, 8] was 4.14 ± 0.348 h and the Tmax [7, 8] was 0.083 h. For the same molecule, the clearance [7, 8] was 17.6 mL/min/kg, the half-life [7, 8] was 3.97 ± 0.284 h and the Cmax [7, 9] was 108 ± 38 ng/mL. It also gave an MRT [7, 9] of 6.54 ± 0.965 h, a Tmax [7, 9] of 3.2 ± 2.95 h and a half-life [7, 9] of 4.07 ± 0.418 h. For the same molecule, the bioavailability ([7]; male, Sprague-Dawley, plasma, PO 5 mg/kg vs IV 2 mg/kg, read-out: BA (oral bioavailability)) was 24.1 ± 9.39%, the Vd ([7]; male, Sprague-Dawley, plasma, intravenous, 2 mg/kg, read-out: volume of distribution) was greater than 1 L/kg and the Vd ([7]; male, Sprague-Dawley, plasma, iv, 2 mg/kg, IV 2 mg/kg, read-out: Vss) was 4.43 ± 0.3 L/kg. It also gave an AUCinf ([7]; IV 2 mg/kg) of 1900 ± 90 ng·h/mL, an AUClast ([7]; IV 2 mg/kg) of 1880 ± 84 ng·h/mL and a Vss ([7]; IV 2 mg/kg, 2 mg/kg) of 4.354 ± 0.3 L/kg. The AUCinf ([7]; PO 5 mg/kg) was 1150 ± 446 ng·h/mL, the AUClast ([7]; PO 5 mg/kg) was 1120 ± 428 ng·h/mL and the “clearance as % of liver blood flow” value ([7]; liver blood flow 3.3 L/h/kg) was “approximately 31.9%”.
